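Method: 48-hour compound exposure of cells in 96-well plates, five concentrations, linear interpolation of endpoints. The concentration for 50% growth inhibition is given as GI50.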 Active and inactive are the calls of the source. No stated cut-off is given here; in the data, active = GI50 up to about 1.1 µM and inactive = higher.
Assays:
Test in all cases: DTP human tumour cell line panel, 48 h
[1] = system: M19-MEL
[2] = system: HOP-92
[3] = system: OVCAR-5
[4] = system: OVCAR-8
[5] = system: OVCAR-3
[6] = system: UACC-62
[7] = system: RPMI-8226
[8] = system: SN12C
[9] = system: MOLT-4
[10] = system: A498
[11] = system: K562
[12] = system: HOP-62
[13] = system: SNB-75
[14] = system: HCT-15
[15] = system: SF-268
[16] = system: LOX IMVI
[17] = system: SF-539
[18] = system: RXF 393
[19] = system: DMS-273
[20] = system: SF-295
[21] = system: HCT-116
[22] = system: DMS-114
[23] = system: COLO 205
[24] = system: KM-20L2
[25] = system: U-251
[26] = system: A549
[27] = system: SNB-78
[28] = system: OVCAR-4
[29] = system: HCC 2998
[30] = system: CAKI-1
[31] = system: SK-OV-3
[32] = system: UO-31
[33] = system: NCI-H460
[34] = system: HL-60
[35] = system: SK-MEL-28
[36] = system: XF498
[37] = system: HOP-18
[38] = system: NCI-H23
[39] = system: KM12
[40] = system: UACC-257
[41] = system: IGROV-1
[42] = system: SW-620
[43] = system: NCI/ADR-RES
[44] = system: DLD-1
[45] = system: SK-MEL-5
[46] = system: HT-29
[47] = system: NCI-H226
[48] = system: MCF7
[49] = system: EKVX
[50] = system: SNB-19
[51] = system: NCI-H522
[52] = system: Malme-3M
[53] = system: CCRF-CEM
[54] = system: SK-MEL-2
[55] = system: LXFL 529
[56] = system: TK-10
[57] = system: ACHN
[58] = system: SR
[59] = system: M14
[60] = system: 786-0

CC(=O)OC1C=C(C=O)C(O)(C=O)C2(C)CCCC(C)(C)C12 (stereo not drawn)
GI50 [1]: 1.23 µM (inactive) | GI50 [2]: 1.05 µM (active) | GI50 [3]: 4.55 µM (inactive) | GI50 [4]: 1.24 µM (inactive) | GI50 [5]: 693 nM (active) | GI50 [6]: 2.76 µM (inactive) | GI50 [7]: 0.519 µM (active) | GI50 [8]: 2.52 µM (inactive) | GI50 [9]: 0.37 µM (active) | GI50 [10]: 1.28 µM (inactive) | GI50 [11]: 0.809 µM (active) | GI50 [12]: 6.38 µM (inactive) | GI50 [13]: 2.4 µM (inactive) | GI50 [14]: 0.6 µM | GI50 [15]: 2.42 µM (inactive) | GI50 [16]: 0.942 µM (active) | GI50 [17]: 2.4 µM (inactive) | GI50 [18]: 0.491 µM (active) | GI50 [19]: 2.08 µM (inactive) | GI50 [20]: 3.07 µM (inactive) | GI50 [21]: 0.989 µM (active) | GI50 [22]: 0.927 µM (active) | GI50 [23]: 859 nM (active) | GI50 [24]: 2.11 µM (inactive) | GI50 [25]: 3.8 µM (inactive) | GI50 [26]: 4.54 µM (inactive) | GI50 [27]: 2.67 µM (inactive) | GI50 [28]: 1.33 µM (inactive) | GI50 [29]: 2.61 µM (inactive) | GI50 [30]: 1 µM (active) | GI50 [31]: 4.34 µM (inactive) | GI50 [32]: 2.32 µM (inactive) | GI50 [33]: 1.64 µM (inactive) | GI50 [34]: 0.249 µM (active) | GI50 [35]: 1.05 µM (active) | GI50 [36]: 1.49 µM (inactive) | GI50 [37]: 0.931 µM (active) | GI50 [38]: 1.44 µM (inactive) | GI50 [39]: 2.31 µM (inactive) | GI50 [40]: 2 µM (inactive) | GI50 [41]: 2.49 µM (inactive) | GI50 [42]: 0.485 µM (active) | GI50 [43]: 1.8 µM (inactive) | GI50 [44]: 1.05 µM (active) | GI50 [45]: 1.17 µM (inactive) | GI50 [46]: 1.39 µM (inactive) | GI50 [47]: 2.69 µM (inactive) | GI50 [48]: 1.89 µM (inactive) | GI50 [49]: 2.65 µM (inactive) | GI50 [50]: 5.6 µM (inactive) | GI50 [51]: 0.456 µM (active) | GI50 [52]: 0.971 µM (active) | GI50 [53]: 0.238 µM (active) | GI50 [54]: 2.86 µM (inactive)

CC(=O)O/N=C(Cl)/C(Cl)=N/OC(C)=O
GI50 [55]: > 100 µM (inactive) | GI50 [2]: > 100 µM (inactive) | GI50 [3]: > 100 µM (inactive) | GI50 [4]: > 100 µM (inactive) | GI50 [6]: > 100 µM (inactive) | GI50 [7]: > 100 µM (inactive) | GI50 [8]: > 100 µM (inactive) | GI50 [56]: > 100 µM (inactive) | GI50 [9]: > 100 µM (inactive) | GI50 [10]: > 100 µM (inactive) | GI50 [11]: > 100 µM (inactive) | GI50 [12]: > 100 µM (inactive) | GI50 [13]: > 100 µM (inactive) | GI50 [14]: > 100 µM | GI50 [15]: > 100 µM (inactive) | GI50 [16]: > 100 µM (inactive) | GI50 [17]: > 100 µM (inactive) | GI50 [18]: > 100 µM (inactive) | GI50 [19]: > 100 µM (inactive) | GI50 [20]: > 100 µM (inactive) | GI50 [21]: > 100 µM (inactive) | GI50 [22]: > 100 µM (inactive) | GI50 [57]: > 100 µM (inactive) | GI50 [24]: > 100 µM (inactive) | GI50 [25]: > 100 µM (inactive) | GI50 [26]: > 100 µM (inactive) | GI50 [27]: > 100 µM (inactive) | GI50 [28]: > 100 µM (inactive) | GI50 [58]: > 100 µM (inactive) | GI50 [29]: > 100 µM (inactive) | GI50 [30]: > 100 µM (inactive) | GI50 [31]: > 100 µM (inactive) | GI50 [32]: > 100 µM (inactive) | GI50 [33]: > 100 µM (inactive) | GI50 [34]: > 100 µM (inactive) | GI50 [35]: > 100 µM (inactive) | GI50 [36]: > 100 µM (inactive) | GI50 [37]: > 100 µM (inactive) | GI50 [38]: > 100 µM (inactive) | GI50 [39]: > 100 µM (inactive) | GI50 [40]: > 100 µM (inactive) | GI50 [41]: > 100 µM (inactive) | GI50 [42]: > 100 µM (inactive) | GI50 [44]: > 100 µM (inactive) | GI50 [46]: > 100 µM (inactive) | GI50 [47]: > 100 µM (inactive) | GI50 [59]: > 100 µM (inactive) | GI50 [49]: > 100 µM (inactive) | GI50 [50]: > 100 µM (inactive) | GI50 [51]: > 100 µM (inactive) | GI50 [52]: > 100 µM (inactive) | GI50 [60]: > 100 µM (inactive) | GI50 [53]: > 100 µM (inactive) | GI50 [54]: > 100 µM (inactive)

CC(C)(C)C1CCC2c3c([nH]c4ccccc34)C3C(=O)N(c4ccccc4)C(=O)C3C2C1 (stereo not drawn)
GI50 [55]: 11.3 µM (inactive) | GI50 [1]: 7.66 µM (inactive) | GI50 [3]: > 100 µM (inactive) | GI50 [4]: 4.84 µM (inactive) | GI50 [5]: 4010 nM (inactive) | GI50 [6]: 20.9 µM (inactive) | GI50 [7]: 7.78 µM (inactive) | GI50 [8]: 5.3 µM (inactive) | GI50 [56]: 3.71 µM (inactive) | GI50 [9]: 3.31 µM (inactive) | GI50 [10]: 2.5 µM (inactive) | GI50 [11]: 4.36 µM (inactive) | GI50 [13]: 2.85 µM (inactive) | GI50 [14]: 22.8 µM | GI50 [15]: 13.6 µM (inactive) | GI50 [16]: 3.79 µM (inactive) | GI50 [17]: 8.97 µM (inactive) | GI50 [18]: 3.81 µM (inactive) | GI50 [19]: 3.34 µM (inactive) | GI50 [20]: 4.86 µM (inactive) | GI50 [22]: 6.15 µM (inactive) | GI50 [57]: 4.94 µM (inactive) | GI50 [23]: 4350 nM (inactive) | GI50 [25]: 3.1 µM (inactive) | GI50 [26]: 10.8 µM (inactive) | GI50 [27]: 5.5 µM (inactive) | GI50 [28]: 1.86 µM (inactive) | GI50 [58]: 6.27 µM (inactive) | GI50 [29]: 9.53 µM (inactive) | GI50 [31]: 2.15 µM (inactive) | GI50 [32]: 2.62 µM (inactive) | GI50 [33]: 3.7 µM (inactive) | GI50 [34]: 12.8 µM (inactive) | GI50 [35]: 4.97 µM (inactive) | GI50 [36]: 0.389 µM (active) | GI50 [37]: 4.76 µM (inactive) | GI50 [38]: 12 µM (inactive) | GI50 [39]: 21.4 µM (inactive) | GI50 [41]: 11.1 µM (inactive) | GI50 [42]: 8.34 µM (inactive) | GI50 [44]: 20.4 µM (inactive) | GI50 [45]: > 10 µM (inactive) | GI50 [46]: 8.93 µM (inactive) | GI50 [47]: 5.82 µM (inactive) | GI50 [59]: 4.43 µM (inactive) | GI50 [49]: 14.9 µM (inactive) | GI50 [50]: 6.59 µM (inactive) | GI50 [52]: 2.4 µM (inactive) | GI50 [60]: 7.14 µM (inactive) | GI50 [53]: 2.77 µM (inactive)

Source: ChEMBL document CHEMBL1201862, “PubChem BioAssay data set” (2004)
